According to patent publication US8003695B2 (Chroma Therapeutics Ltd., priority 2006, dated 2011):

Legend:
IKBKB (IKKβ) = target: T1, IKBKB (IKKβ) (Homo sapiens, UniProt O14920); assay: IKKβ Enzyme Assay (Z'-LYTE, Invitrogen); format: biochemical; conditions: ATP at or close to Km; read-out: Inhibitor activity versus IKKβ
T1 construct: purchased Invitrogen (Paisley, UK)
T1 sequence (O14920 1-756): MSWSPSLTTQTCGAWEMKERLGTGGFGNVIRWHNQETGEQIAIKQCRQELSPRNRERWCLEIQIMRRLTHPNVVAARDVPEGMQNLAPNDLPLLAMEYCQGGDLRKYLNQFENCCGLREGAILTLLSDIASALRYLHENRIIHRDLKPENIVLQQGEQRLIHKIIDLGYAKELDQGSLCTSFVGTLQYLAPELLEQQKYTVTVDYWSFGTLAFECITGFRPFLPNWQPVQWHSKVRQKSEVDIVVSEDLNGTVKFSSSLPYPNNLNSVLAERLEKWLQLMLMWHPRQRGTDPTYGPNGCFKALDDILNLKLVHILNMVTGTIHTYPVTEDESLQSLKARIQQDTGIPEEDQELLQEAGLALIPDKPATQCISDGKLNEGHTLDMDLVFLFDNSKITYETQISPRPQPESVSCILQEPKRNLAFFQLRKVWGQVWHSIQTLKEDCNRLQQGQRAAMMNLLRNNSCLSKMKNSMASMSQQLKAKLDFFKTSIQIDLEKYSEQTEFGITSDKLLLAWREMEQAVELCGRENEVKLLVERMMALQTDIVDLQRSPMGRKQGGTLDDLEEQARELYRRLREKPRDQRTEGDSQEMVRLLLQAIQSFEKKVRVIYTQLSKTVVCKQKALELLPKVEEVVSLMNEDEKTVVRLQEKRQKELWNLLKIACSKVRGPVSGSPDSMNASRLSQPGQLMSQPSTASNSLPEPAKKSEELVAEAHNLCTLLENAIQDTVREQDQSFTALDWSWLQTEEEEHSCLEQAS
Protocol: The ability of compounds to inhibit IKKβ kinase activity was measured in an assay performed by Invitrogen (Paisley, UK). The Z′-LYTE™ biochemical assay employs a fluorescence-based, coupled-enzyme format and is based on the differential sensitivity of phosphorylated and non-phosphorylated peptides to proteolytic cleavage. The peptide substrate is labelled with two fluorophores—one at each end—that make up a FRET pair. In the primary reaction, the kinase transfers the gamma-phosphate of ATP to a single serine or threonine residue in a synthetic FRET-peptide. In the secondary reaction, a site-specific protease recognizes and cleaves non-phosphorylated FRET-peptides. Phosphorylation of FRET-peptides suppresses cleavage by the Development Reagent. Cleavage disrupts FRET between the donor (i.e., coumarin) and acceptor (i.e. fluorescein) fluorophores on the FRET-peptide, whereas uncleaved, phosphorylated FRET-peptides maintain FRET. A […] method, which calculates the ratio (the Emission Ratio) of donor emission to acceptor emission after excitation of the donor fluorophore at 400 nm, is used to quantitate reaction progress.
The final 10 μL Kinase Reaction consists of 0.9-8.0 ng IKBKB (IKKβ), 2 μM Ser/Thr 05 Peptide and ATP in 50 mM HEPES pH 7.5, 0.01% BRIJ-35, 10 mM MgCl2, 1 mM EGTA. The assay is performed at an ATP concentration at, or close to the Km. After the 60 minute Kinase Reaction incubation at room temperature, 5 μL of a 1:128 dilution of Development Reagent is added. The assay plate is incubated for a further 60 minutes at room temperature and read on a fluorescence plate reader.
Duplicate data points are generated from a ⅓ log dilution series of a stock solution of test compound in DMSO. Nine dilutions steps are made from a top concentration of 10 μM, and a ‘no compound’ blank is included. Data is collected and analysed using XLfit software from IDBS. The dose response curve is curve fitted to model number 205 (sigmoidal dose-response model). From the curve generated, the concentration giving 50% inhibition is determined and reported.

THP-1 cells = assay: LPS-Stimulation of THP-1 Cells, TNF-α release; format: cell-based; conditions: Homo sapiens, LPS 1 μg/ml, 6 hrs, read-out: Inhibitor activity versus THP-1 TNFα release
Protocol: LPS-Stimulation of THP-1 Cells
THP-1 cells were plated in 100 μl at a density of 4×10^4 cells/well in V-bottomed 96 well tissue culture treated plates and incubated at 37° C. in 5% CO2 for 16 hrs. 2 hrs after the addition of the inhibitor in 100 μl of tissue culture media, the cells were stimulated with LPS (E. coli strain 005:85, Sigma) at a final concentration of 1 μg/ml and incubated at 37° C. in 5% CO2 for 6 hrs. TNF-α levels were measured from cell-free supernatants by sandwich ELISA (R&D Systems #QTA00B)

| IC50 (IKBKB (IKKβ)) [µM] | IC50 (THP-1 cells) [µM] | Compound |
| --- | --- | --- |
| > 5 | 1 to 5 | CC(C)C[C@H](NCCCCCOc1ccc(-c2cc(C(N)=O)c(NC(N)=O)s2)c(Cl)c1)C(=O)OC1CCCC1 [Example 28, Cyclopentyl N-(5-{4-[4-carbamoyl-5-(carbamoylamino)-2-thienyl]-3-chlorophenoxy}pentyl)-L-leucinate] |
| > 5 | > 5 | NC(=O)Nc1sc(-c2ccc(CN[C@H](C(=O)OC3CCCC3)c3ccc4ccccc4c3)cc2)cc1C(N)=O [Example 5, Cyclopentyl (2S)-({4-[4-carbamoyl-5-(carbamoylamino)-2-thienyl]benzyl}amino)(2-naphthyl)acetate] |
| 1 to 5 | > 5 | CC(C)C[C@H](NC/C=C/c1ccc(-c2cc(C(N)=O)c(NC(N)=O)s2)cc1C(F)(F)F)C(=O)OC1CCCC1 [Example 36, Cyclopentyl N-[(2E)-3-{4-[4-carbamoyl-5-(carbamoylamino)thiophen-2-yl]-2-(trifluoromethyl)phenyl}prop-2-en-1-yl]-L-leucinate] |
| 1 to 5 | 1 to 5 | CC(C)C[C@H](NC/C=C/c1ccc(-c2cc(C(N)=O)c(NC(N)=O)s2)c(Cl)c1)C(=O)OC1CCCC1 [Example 35, Cyclopentyl N-[(2E)-3-{4-[4-carbamoyl-5-(carbamoylamino)thiophen-2-yl]-3-chlorophenyl}prop-2-en-1-yl]-L-leucinate] |
| 1 to 5 | 1 to 5 | CC(C)C[C@H](NCCCOc1ccc(-c2cc(C(N)=O)c(NC(N)=O)s2)cc1)C(=O)OC1CCCC1 [Example 25, Cyclopentyl N-(3-{4-[4-carbamoyl-5-(carbamoylamino)-2-thienyl]phenoxy}propyl)-L-leucinate] |
| < 1 | 1 to 5 | CC(C)C[C@H](NC/C=C/c1ccc(-c2cc(C(N)=O)c(NC(N)=O)s2)c(F)c1)C(=O)OC1CCCC1 [Example 34, Cyclopentyl N-[(2E)-3-{4-[4-carbamoyl-5-(carbamoylamino)thiophen-2-yl]-3-fluorophenyl}prop-2-en-1-yl]-L-leucinate] |
| 1 to 5 | 1 to 5 | CC(C)C[C@H](NCCCOc1ccc(-c2cc(C(N)=O)c(NC(N)=O)s2)c(Cl)c1)C(=O)OC1CCCC1 [Example 26, Cyclopentyl N-(3-{4-[4-carbamoyl-5-(carbamoylamino)-2-thienyl]-3-chlorophenoxy}propyl)-L-leucinate] |
| 1 to 5 | 1 to 5 | Cc1cc(-c2cc(C(N)=O)c(NC(N)=O)s2)ccc1/C=C/CN[C@@H](CC(C)C)C(=O)OC1CCCC1 [Example 30, Cyclopentyl N-[(2E)-3-{4-[4-carbamoyl-5-(carbamoylamino)thiophen-2-yl]-2-methylphenyl}prop-2-en-1-yl]-L-leucinate] |
| < 1 | 1 to 5 | Cc1cc(-c2cc(C(N)=O)c(NC(N)=O)s2)ccc1CN[C@@H](CC(C)C)C(=O)OC1CCCC1 [Example 7, Cyclopentyl N-{-4-[4-carbamoyl-5-(carbamoylamino)-2-thienyl]-2-methylbenzyl}-L-leucinate] |
| > 5 | > 5 | NC(=O)Nc1sc(-c2ccc(CN[C@@H](Cc3ccccc3)C(=O)OC3CCCC3)cc2)cc1C(N)=O [Example 3, Cyclopentyl N-{-4-[4-carbamoyl-5-(carbamoylamino)-2-thienyl]benzyl}-L-phenylalaninate] |
| < 1 | > 5 | CC(C)C[C@H](NCc1ccc(-c2cc(C(N)=O)c(NC(N)=O)s2)c(Cl)c1)C(=O)OC1CCCC1 [Example 6, Cyclopentyl N-{-4-[4-carbamoyl-5-(carbamoylamino)-2-thienyl]-3-chlorobenzyl}-L-leucinate] |
| 1 to 5 | 1 to 5 | CC(C)C[C@H](NCCc1ccc(-c2cc(C(N)=O)c(NC(N)=O)s2)cc1)C(=O)OC1CCCC1 [Example 16, Cyclopentyl N-(2-{4-[4-carbamoyl-5-(carbamoylamino)-2-thienyl]phenyl}ethyl)-L-leucinate] |
| 1 to 5 | > 5 | CC(C)C[C@H](NCCc1ccc(-c2cc(C(N)=O)c(NC(N)=O)s2)c(Cl)c1)C(=O)OC1CCCC1 [Example 17, Cyclopentyl N-(2-{4-[4-carbamoyl-5-(carbamoylamino)-2-thienyl]-3-chlorophenyl}ethyl)-L-leucinate] |
| < 1 | – | CC(C)C[C@H](NC/C=C/c1ccc(-c2cc(C(N)=O)c(NC(N)=O)s2)cc1)C(=O)O [Example 69, N-[(2E)-3-{4-[4-Carbamoyl-5-(carbamoylamino)-2-thienyl]phenyl}prop-2-en-1-yl]-L-leucine] |
| < 1 | – | CC(C)C[C@H](NCCCOc1ccc(-c2cc(C(N)=O)c(NC(N)=O)s2)c(Cl)c1)C(=O)O [Example 66, N-(3-{4-[4-Carbamoyl-5-(carbamoylamino)-2-thienyl]-3-chlorophenoxy}propyl)-L-leucine] |
| < 1 | – | CC(C)C[C@H](NC/C=C/c1ccc(-c2cc(C(N)=O)c(NC(N)=O)s2)c(Cl)c1)C(=O)O [Example 75, N-[(2E)-3-{4-[4-carbamoyl-5-(carbamoylamino)thiophen-2-yl]-3-chlorophenyl}prop-2-en-1-yl]-L-leucine] |
| 1 to 5 | – | CC(C)C[C@H](NC/C=C/c1ccc(-c2cc(C(N)=O)c(NC(N)=O)s2)c(C(F)(F)F)c1)C(=O)O [Example 79, N-[(2E)-3-{4-[4-carbamoyl-5-(carbamoylamino)thiophen-2-yl]-3-(trifluoromethyl)phenyl}prop-2-en-1-yl]-L-leucine] |
| < 1 | – | CC(C)C[C@H](NCc1cccc(-c2cc(C(N)=O)c(NC(N)=O)s2)c1)C(=O)O [Example 57, N-{3-[4-Carbamoyl-5-(carbamoylamino)-2-thienyl]benzyl}-L-leucine] |
| 1 to 5 | 1 to 5 | CC(C)C[C@H](NC/C=C/c1cc(F)c(-c2cc(C(N)=O)c(NC(N)=O)s2)cc1F)C(=O)OC1CCCC1 [Example 37, Cyclopentyl N-[(2E)-3-{4-[4-carbamoyl-5-(carbamoylamino)thiophen-2-yl]-2,5-difluorophenyl}prop-2-en-1-yl]-L-leucinate] |
| < 1 | – | CC(C)C[C@@H](NC/C=C/c1ccc(-c2cc(C(N)=O)c(NC(N)=O)s2)cc1)C(=O)O [Example 84, N-[(2E)-3-{4-[4-carbamoyl-5-(carbamoylamino)-2-thienyl]phenyl}prop-2-en-1-yl]-D-leucine] |
| < 1 | – | CC(C)C[C@H](NC/C=C/c1c(F)cc(-c2cc(C(N)=O)c(NC(N)=O)s2)cc1F)C(=O)O [Example 78, N-[(2E)-3-{4-[4-carbamoyl-5-(carbamoylamino)thiophen-2-yl]-2,6-difluorophenyl}prop-2-en-1-yl]-L-leucine] |
| < 1 | 1 to 5 | CC(C)C[C@H](NCCCCCOc1ccc(-c2cc(C(N)=O)c(NC(N)=O)s2)cc1)C(=O)OC1CCCC1 [Example 27, Cyclopentyl N-(5-{4-[4-carbamoyl-5-(carbamoylamino)-2-thienyl]phenoxy}pentyl)-L-leucinate] |
